From US11324725B2, “Compositions and methods for the inhibition of pruritus” (The United States of America, as represented by the …, priority 2017, dated 2022)
“Also recorded” adds a separate entry of the source.

Columns and labels:
[1] = molecular target: T1, hNpr1 (Homo sapiens, UniProt P16066); experiment: GloSensor assay in 96-well format, HEK-hNpr1-cGMP-sensor cells; format: cell-based; design: Reversibility of hNpr1 inhibition after washing: dose or concentration left out as unconfirmed; conditions: for Imax [%] (mean ± SEM), GloSensor 96-well format / IC50: 60 pM hNppa 5 minutes after compound; for IC50: read-out: IC50 [μM] (mean ± SEM), GloSensor 96-well format; for Ki: calculated with Cheng-Prusoff equation from Table 3, read-out: Ki hNpr1 GloSensor™ [μM] (mean ± SEM); for Effect on hNppa concentration-response at fixed antagonist concentration: 5 μM antagonist, increasing hNppa, GloSensor and membrane cyclase assays (FIGS. 5B-C); for Basal (unstimulated) hNpr1 activity: HEK-hNpr1-cGMP-sensor cells, no agonist
T1 sequence (P16066 33-1061): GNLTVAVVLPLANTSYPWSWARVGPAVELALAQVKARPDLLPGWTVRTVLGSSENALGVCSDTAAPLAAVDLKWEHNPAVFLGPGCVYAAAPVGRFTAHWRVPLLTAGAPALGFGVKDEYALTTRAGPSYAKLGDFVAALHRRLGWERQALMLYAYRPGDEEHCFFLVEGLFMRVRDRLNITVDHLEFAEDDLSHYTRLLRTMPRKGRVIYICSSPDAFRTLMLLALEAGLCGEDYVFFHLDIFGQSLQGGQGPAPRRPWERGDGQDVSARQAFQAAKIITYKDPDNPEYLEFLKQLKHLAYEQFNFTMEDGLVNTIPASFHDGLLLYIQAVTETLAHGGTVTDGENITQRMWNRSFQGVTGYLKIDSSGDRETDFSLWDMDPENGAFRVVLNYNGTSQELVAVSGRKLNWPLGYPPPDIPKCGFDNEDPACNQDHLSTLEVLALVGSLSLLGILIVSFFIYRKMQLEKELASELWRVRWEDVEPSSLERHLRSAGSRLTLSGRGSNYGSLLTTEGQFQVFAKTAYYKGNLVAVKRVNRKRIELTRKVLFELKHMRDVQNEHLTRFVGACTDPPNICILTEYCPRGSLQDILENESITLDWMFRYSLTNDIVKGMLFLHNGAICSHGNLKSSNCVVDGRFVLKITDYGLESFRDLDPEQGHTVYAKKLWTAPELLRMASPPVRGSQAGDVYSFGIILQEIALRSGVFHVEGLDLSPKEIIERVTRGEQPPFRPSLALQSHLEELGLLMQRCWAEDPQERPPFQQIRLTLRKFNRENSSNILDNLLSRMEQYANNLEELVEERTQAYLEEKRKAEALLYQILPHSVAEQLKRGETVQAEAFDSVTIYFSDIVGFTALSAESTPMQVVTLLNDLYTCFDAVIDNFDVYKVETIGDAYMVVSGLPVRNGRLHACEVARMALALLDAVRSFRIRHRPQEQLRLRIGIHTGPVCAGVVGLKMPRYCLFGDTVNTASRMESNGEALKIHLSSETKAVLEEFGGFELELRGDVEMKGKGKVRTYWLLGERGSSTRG
Experimental: Before the measurement (24 hours in advance), 3×10^4 cells were seeded into white 96-well plates (PerkinElmer, Waltham, Mass.), coated with 0.1% poly(D-lysine), and assays conducted as recommended by the manufacturer (Promega). Medium was aspirated and cells were loaded for two hours at room temperature with 2% GoSensor™ reagent diluted in CO2-independent media (ThermoFisher) supplemented with 2 mM L-glutamine and 10% FBS (assay medium). Luminescence was measured on a BioTek Synergy™ NEO (Winooski, Vt.) plate reader at room temperature. After a baseline measurement of 3-5 minutes, assay medium as a control or assay medium with agonist was manually added, and luminescence was measured for 30 minutes at ˜ 1/60 Hz. For compounds tested for Npr1 and Npr2 inhibition, the compounds were added after baseline measurements, and luminescence was read for 5 minutes before addition of agonist. Luminescence was then normalized to baseline measurements and plotted against the time. Ligand-induced changes of cGMP production were quantified by determining the area under the curve. To determine efficacy and potency of agonists, ligand-induced changes were normalized to medium only addition and plotted against the ligand concentration. […] To quantify […] of compounds, compound-induced changes of agonist-induced cGMP production were normalized to vehicle controls, plotted against compound concentration, and fit with a four-parameter logistic regression. Effects of A-71915 on basal mNpr1 activity were fitted with a bell-shaped regression (equation indicated below).
Additional screens of the fifteen candidates corroborated hNpr1 inhibition. In particular, HEK-hNpr1-cGMP-sensor cells were seeded in 96-wells and stimulated with 60 pM hNppa 5 minutes after addition of candidate compounds or A-71915 and luminescence was measured for 30 minutes. Inhibitors were titrated to calculate apparent potency (IC50) and efficacy (Imax) of inhibition of hNppa-induced cGMP production.

[2] = molecular target: T1, hNpr1; experiment: Cell-free hNpr1 membrane cyclase assay (cGMP ELISA); format: biochemical
[3] = Table 1, biochemical assay, read-out: IC50 biochem assay
[4] = calculated with Cheng-Prusoff equation from Table 4, read-out: Ki hNpr1 cyclase assay [μM] (mean ± SEM)
[5] = membranes of HEK-hNpr1-cGMP-sensor cells, hNppa-stimulated
[6] = membranes of HEK-hNpr1-cGMP-sensor cells, hNppa-stimulated, read-out: IC50 [μM] (mean ± SEM), membrane cyclase assay

IC50 [1]	Ki [1]	IC50 [2, 3]	Ki [2, 4]	Imax [%] (mean ± SEM), membrane cyclase assay [2, 5]	IC50 [2, 6]	SMILES	Imax [%] (mean ± SEM), GloSensor 96-well format [1]	Effect on hNppa concentration-response at fixed antagonist concentration [1]	Basal (unstimulated) hNpr1 activity [1]	Reversibility of hNpr1 inhibition after washing ([1]; 5 minutes compound, 5-minute washing step, then hNppa)	Ki [2]	IC50 ([2]; IC50 [μM] (mean ± SEM), membrane cyclase assay, membranes of HEK-hNpr1-cGMP-sensor cells, hNppa-stimulated)	IC50 ([2]; IC50 biochem assay (M), Table 1, biochemical assay)
1.1 ± 0.01 µM	0.18 ± 0.002 µM	2.2 µM	0.41 ± 0.006 µM	−96.1 ± 3.7%	2.8 ± 0.04 µM	COc1cc(CN2CCC(C)(NC(C)=O)CC2)cc(-c2ccncc2)c1 [JS-4, N-(1-(3-methoxy-5-(pyridin-4-yl)benzyl)-4-methylpiperidin-4-yl)acetamide]	−95.5 ± 1.2%	–	–	–	–	–	–
1.9 ± 0.1 µM	0.31 ± 0.023 µM	0.766 µM	0.11 ± 0.275 µM	−99.4 ± 0.5%	0.8 ± 1.9 µM	COc1ccccc1-c1n[nH]c2ncc(C(=O)NCc3cccnc3)nc12 [JS-6, 3-(2-methoxyphenyl)-N-(pyridin-3-ylmethyl)-1H-pyrazolo[3,4-b]pyrazine-5-carboxamide]	−94.2 ± 5.3%	–	–	–	–	–	–
1.2 ± 0.5 µM	0.19 ± 0.085 µM	0.122 µM	0.02 ± 0.044 µM	−98.4 ± 1.5%	0.1 ± 0.3 µM	O=C(NCc1cccnc1)c1cnc2[nH]nc(-c3ccccc3)c2n1 [JS-7, 3-phenyl-N-(pyridin-3-ylmethyl)-1H-pyrazolo[3,4-b]pyrazine-5-carboxamide]	–	–	–	–	–	–	–
3.1 ± 1.4 µM	0.49 ± 0.215 µM	2.17 µM	0.32 ± 0.262 µM	−95.3 ± 4.5%	2.2 ± 1.8 µM	Cc1nn2c(c1-c1ccccc1OCc1ccccc1)N(C(=O)Cc1ccccn1)CCC2 [JS-9, 1-(3-(2-(benzyloxy)phenyl)-2-methyl-6,7-dihydropyrazolo[1,5-a]pyrimidin-4(5H)-yl)-2-(pyridin-2-yl)ethan-1-one]	−93.4 ± 6.4%	–	–	–	–	–	–
6.7 ± 6.7 µM	1.07 ± 1.08 µM	0.744 µM	0.11 ± 0.09 µM	−95.2 ± 3.3%	0.7 ± 0.6 µM	Cc1nn2c(c1-c1ccccc1Oc1ccccc1)N(C(=O)Cc1ccc3c(c1)OCO3)CCC2 [JS-10, 2-(benzo[d][1,3]dioxol-5-yl)-1-(2-methyl-3-(2-phenoxyphenyl)-6,7-dihydropyrazolo[1,5-a]pyrimidin-4(5H)-yl)ethan-1-one]	−98.3 ± 1.7%	–	–	–	–	–	–
1.1 ± 0.1 µM	0.18 ± 0.011 µM	1.19 µM	0.12 ± 0.13 µM	−94.4 ± 5.4%	0.8 ± 0.9 µM	N#Cc1ccccc1CN1CCCC(C(=O)NCc2ccccc2)CCNC(=O)CC1 (stereo not shown) [JS-13, N-benzyl-1-(2-cyanobenzyl)-4-oxo-1,5-diazacycloundecane-8-carboxamide]	−96.1 ± 0.4%	–	–	–	–	–	–
3.1 ± 1.1 µM	0.5 ± 0.179 µM	18.6 µM	1.87 ± 0.723 µM	−99.0 ± 0.0%	12.7 ± 4.9 µM	CN(Cc1ccccc1)C(=O)c1cn2ccnc(-c3ccccc3)c2n1 [JS-14, N-benzyl-N-methyl-8-phenylimidazo[1,2-a]pyrazine-2-carboxamide]	–	–	–	–	–	–	–

SMILES	IC50 [1]	Ki [1]	IC50 [2, 3]	Ki [2, 4]	Imax [%] (mean ± SEM), membrane cyclase assay [2, 5]	IC50 [2, 6]	Imax [%] (mean ± SEM), GloSensor 96-well format [1]	Effect on hNppa concentration-response at fixed antagonist concentration [1]	Basal (unstimulated) hNpr1 activity [1]	Reversibility of hNpr1 inhibition after washing ([1]; 5 minutes compound, 5-minute washing step, then hNppa)	Ki [2]	IC50 ([2]; IC50 [μM] (mean ± SEM), membrane cyclase assay, membranes of HEK-hNpr1-cGMP-sensor cells, hNppa-stimulated)	IC50 ([2]; IC50 biochem assay (M), Table 1, biochemical assay)
CCC(CC)c1cc([C@H]2CN3CC[C@H]2C[C@@H]3CNS(=O)(=O)c2cccs2)nc(-c2ccncc2)n1 [JS-3, N-(((2R,4S,5R)-5-(6-(pentan-3-yl)-2-(pyridin-4-yl)pyrimidin-4-yl)quinuclidin-2-yl)methyl)thiophene-2-sulfonamide]	3.1 ± 0.6 µM	0.5 ± 0.102 µM	3.98 µM	0.58 ± 0.179 µM	−98.2 ± 1.8%	4 ± 1.2 µM	−99.4 ± 0.6%	–	–	–	–	–	–
Cc1noc(C)c1-c1cc(-c2ccccc2Oc2ccccc2)cn2cncc12 [JS-5, 3,5-dimethyl-4-(6-(2-phenoxyphenyl)imidazo[1,5-a]pyridin-8-yl)isoxazole]	7.4 ± 0.3 µM	1.18 ± 0.048 µM	0.141 µM	0.02 ± 0.02 µM	−99.8 ± 0.1%	0.1 ± 0.1 µM	−99.9 ± 0.1%	reduced maximal responses even at extremely high hNppa concentrations	dose dependently inhibited	–	–	–	–
Cc1nn2c(c1-c1ccccc1OCc1ccccc1)N(C(=O)Cc1ccc3c(c1)OCO3)CCC2 [JS-8, 2-(benzo[d][1,3]dioxol-5-yl)-1-(3-(2-(benzyloxy)phenyl)-2-methyl-6,7-dihydropyrazolo[1,5-a]pyrimidin-4(5H)-yl)ethan-1-one]	1.2 ± 0.1 µM	0.2 ± 0.013 µM	0.336 µM	0.05 ± 0.064 µM	−98.0 ± 2.0%	0.3 ± 0.4 µM	−98.8 ± 0.7%	reduced maximal responses even at extremely high hNppa concentrations	dose dependently inhibited	a single washing step was sufficient to completely recover hNpr1 activity; also recorded: reversible	–	–	–
Cc1cc(CNC(=O)c2ccc3c(c2)n(CC2CC2)c(=O)n3C2CCCCC2)on1 [JS-11, 1-cyclohexyl-3-(cyclopropylmethyl)-N-((3-methylisoxazol-5-yl)methyl)-2-oxo-2,3-dihydro-1H-benzo[d]imidazole-5-carboxamide]	1.9 ± 0.8 µM	0.3 ± 0.134 µM	1.14 µM	0.21 ± 0.008 µM	−99.7 ± 0.2%	1.4 ± 0.1 µM	−96.3 ± 1.3%	–	dose dependently inhibited	–	–	–	–
COc1ccc(C2(C(=O)N3CCC4(CC3)c3nccn3-c3ccccc3CN4C)CC2)cc1 [JS-12, (1-(4-methoxyphenyl)cyclopropyl)(5-methyl-5,6-dihydrospiro[benzo[f]imidazo[1,2-a][1,4]diazepine-4,4′-piperidin]-1′-yl)methanone]	1.3 ± 0.002 µM	0.21 ± 0.0002 µM	–	–	−99.0 ± 1.0%	–	−96.0 ± 1.3%	–	–	–	0.1 ± 0.015 µM	0.7 ± 0.1 µM	0.614 µM
